Experimental data taken from publication PMC9395504 (Investigational New Drugs, 2022).
Read-outs that look alike come from different tables or passages of the source. Marks after values point to notes of the source that are not given here.

Key:
[1] = Safety: adverse events by NCI-CTCAE v4.0, phase 1 study Part 1; type: in vivo, human
Procedure: We defined the dose-limiting toxicity (DLT) period as the first 28 days of each dose-escalation cohort’s treatment cycle (DLT window). […] Non-hematologic DLTs included grade ≥3 nausea, vomiting, or diarrhea enduring >48 hours despite standard medical management, grade 3 fatigue persisting >7 days or grade 4 fatigue, any grade ≥3 metabolic laboratory abnormalities that are not controlled within 48 hours by standard medical management.

[2] = Plasma pharmacokinetics of trametinib and dabrafenib at steady state (LC-MS/MS, noncompartmental); type: in vivo, human; conditions: for Cmax / AUC(0-t) / Tmax: human, plasma, oral
Procedure: We, therefore, collected samples on these days to perform dabrafenib and trametinib PK analysis.
We determined plasma concentrations of trametinib, dabrafenib, and hydroxy- and desmethyl-dabrafenib metabolites with a validated assay using liquid-liquid extraction of samples spiked with the stable isotope internal standards for each analyte followed by analysis using LC-MS/MS detection. The validated concentration ranges for quantitation were 0.250 to 250 ng/mL for trametinib and 1.00 to 1,000 ng/mL for dabrafenib and its metabolites. We calculated concentrations using a linear regression calibration model with a 1/x^2 weighting factor.
The following PK parameters were estimated: maximum observed plasma concentration (Cmax), time to reach Cmax (tmax), area-under-the-plasma concentration-time curve (AUC), terminal phase half-life (t1/2,z), and apparent total body clearance (CL/F). We performed noncompartmental analyses for PK parameter estimation using Phoenix® WinNonlin® version 6.4 or later software (Certara™, Princeton, NJ). […] We prepared descriptive statistics, tables, and graphs using Phoenix® WinNonlin® and Prism version 9.1.1 (GraphPad Software, San Diego, CA).

[3] = trametinib 2 mg QD, Cycle 2 Day 7 with AMG 232, Arm 2 cohort 1 (AMG 232 120 mg), geometric mean (CV%)
[4] = trametinib 2 mg QD, Cycle 2 Day 7 with AMG 232, Arm 2 cohort 3 (AMG 232 240 mg), geometric mean (CV%)

In the case of `CC(C)(C)c1nc(-c2cccc(NS(=O)(=O)c3c(F)cccc3F)c2F)c(-c2ccnc(N)n2)s1` [dabrafenib], the “Patients discontinuing dabrafenib due to AEs” value ([1]; 10 patients in Arm 1, n=2) is reported as 20%, the “Effect of AMG 232 on dabrafenib exposures” value ([2]; dabrafenib and trametinib with and without AMG 232) is reported as “not significantly altered” and the Cmax ([2]; 150 mg BID, dabrafenib 150 mg BID, Cycle 1 Day 21, T + D without AMG 232, Arm 1 cohort 1 (AMG 232 120 mg), geometric mean (CV%)) is reported as 1740 ng/mL. For the same compound, the AUC(0-t) ([2]; 150 mg BID, dabrafenib 150 mg BID, Cycle 1 Day 21, T + D without AMG 232, Arm 1 cohort 1 (AMG 232 120 mg), geometric mean (CV%), read-out: AUC6hr) was 4840 ng·h/mL, the Cmax ([2]; 150 mg BID, dabrafenib 150 mg BID, Cycle 1 Day 21, T + D without AMG 232, Arm 1 cohort 2 (AMG 232 180 mg), geometric mean (CV%)) was 3310 ng/mL and the AUC(0-t) ([2]; 150 mg BID, dabrafenib 150 mg BID, Cycle 1 Day 21, T + D without AMG 232, Arm 1 cohort 2 (AMG 232 180 mg), geometric mean (CV%), read-out: AUC6hr) was 7450 ng·h/mL. For the same compound, the Tmax ([2]; 150 mg BID, dabrafenib 150 mg BID, Cycle 1 Day 21, T + D without AMG 232, Arm 1 cohort 2 (AMG 232 180 mg), median (min-max), read-out: tmax) was 1 h, the Tmax ([2]; dabrafenib 150 mg BID, Cycle 1 Day 21, T + D without AMG 232, Arm 1 cohort 1 (AMG 232 120 mg), median (min-max), read-out: tmax) was 1 h and the Cmax ([2]; dabrafenib 150 mg BID, Cycle 2 Day 7, T + D with AMG 232, Arm 1 cohort 1 (AMG 232 120 mg), geometric mean (CV%)) was 1200 ng/mL. The AUC(0-t) ([2]; dabrafenib 150 mg BID, Cycle 2 Day 7, T + D with AMG 232, Arm 1 cohort 1 (AMG 232 120 mg), geometric mean (CV%), read-out: AUC6hr) was 3640 ng·h/mL, the Cmax ([2]; dabrafenib 150 mg BID, Cycle 2 Day 7, T + D with AMG 232, Arm 1 cohort 2 (AMG 232 180 mg), geometric mean (CV%)) was 1750 ng/mL and the AUC(0-t) ([2]; dabrafenib 150 mg BID, Cycle 2 Day 7, T + D with AMG 232, Arm 1 cohort 2 (AMG 232 180 mg), geometric mean (CV%), read-out: AUC6hr) was 4910 ng·h/mL. The Tmax ([2]; dabrafenib, cycle 1, day 21, without AMG 232 co-administration, read-out: median tmax) was 1 h.
In the case of `CC(=O)Nc1cccc(-n2c(=O)n(C3CC3)c(=O)c3c(Nc4ccc(I)cc4F)n(C)c(=O)c(C)c32)c1` [trametinib], the “Patients discontinuing trametinib due to AEs” value ([1]; all 31 patients, n=6) is reported as 19%, the “Effect of AMG 232 co-administration on trametinib PK” value ([2]; cycle 2 day 7 vs cycle 1 day 21) is reported as “does not appear to affect” and the Cmax ([2]; 2 mg, trametinib 2 mg QD, Cycle 1 Day 21 without AMG 232, Arm 2 cohort 1 (AMG 232 120 mg), geometric mean (CV%)) is reported as 21.5 ng/mL. It also gave an AUC(0-t) ([2]; 2 mg, trametinib 2 mg QD, Cycle 1 Day 21 without AMG 232, Arm 2 cohort 1 (AMG 232 120 mg), geometric mean (CV%), read-out: AUC24hr) of 370 ng·h/mL, a Cmax ([2]; 2 mg, trametinib 2 mg QD, Cycle 1 Day 21 without AMG 232, Arm 2 cohort 2 (AMG 232 180 mg), geometric mean (CV%)) of 25.3 ng/mL and a Tmax ([2]; 2 mg, trametinib 2 mg QD, Cycle 1 Day 21 without AMG 232, Arm 2 cohort 2 (AMG 232 180 mg), median (min-max), read-out: tmax) of 4 h. The Cmax ([2]; 2 mg, trametinib 2 mg QD, Cycle 1 Day 21 without AMG 232, Arm 2 cohort 3 (AMG 232 240 mg), geometric mean (CV%)) was 22.1 ng/mL, the Tmax ([2]; 2 mg, trametinib 2 mg QD, Cycle 1 Day 21 without AMG 232, Arm 2 cohort 3 (AMG 232 240 mg), median (min-max), read-out: tmax) was 2 h and the Cmax ([2]; trametinib 2 mg QD, Cycle 1 Day 21 without AMG 232, Arm 1 cohort 1 (AMG 232 120 mg), geometric mean (CV%)) was 20.1 ng/mL. The AUC(0-t) ([2]; trametinib 2 mg QD, Cycle 1 Day 21 without AMG 232, Arm 1 cohort 1 (AMG 232 120 mg), geometric mean (CV%), read-out: AUC24hr) was 326 ng·h/mL, the Tmax ([2]; trametinib 2 mg QD, Cycle 1 Day 21 without AMG 232, Arm 1 cohort 1 (AMG 232 120 mg), median (min-max), read-out: tmax) was 2 h and the Cmax ([2]; trametinib 2 mg QD, Cycle 1 Day 21 without AMG 232, Arm 1 cohort 2 (AMG 232 180 mg), geometric mean (CV%)) was 24.1 ng/mL. It also gave an AUC(0-t) ([2]; trametinib 2 mg QD, Cycle 1 Day 21 without AMG 232, Arm 1 cohort 2 (AMG 232 180 mg), geometric mean (CV%), read-out: AUC24hr) of 362 ng·h/mL, a Tmax ([2]; trametinib 2 mg QD, Cycle 1 Day 21 without AMG 232, Arm 1 cohort 2 (AMG 232 180 mg), median (min-max), read-out: tmax) of 2 h and a Cmax ([2]; trametinib 2 mg QD, Cycle 2 Day 7 with AMG 232, Arm 1 cohort 1 (AMG 232 120 mg), geometric mean (CV%)) of 22.4 ng/mL. It also gave an AUC(0-t) ([2]; trametinib 2 mg QD, Cycle 2 Day 7 with AMG 232, Arm 1 cohort 1 (AMG 232 120 mg), geometric mean (CV%), read-out: AUC24hr) of 338 ng·h/mL, a Tmax ([2]; trametinib 2 mg QD, Cycle 2 Day 7 with AMG 232, Arm 1 cohort 1 (AMG 232 120 mg), median (min-max), read-out: tmax) of 2 h and a Cmax ([2]; trametinib 2 mg QD, Cycle 2 Day 7 with AMG 232, Arm 1 cohort 2 (AMG 232 180 mg), geometric mean (CV%)) of 25.9 ng/mL. For the same compound, the AUC(0-t) ([2]; trametinib 2 mg QD, Cycle 2 Day 7 with AMG 232, Arm 1 cohort 2 (AMG 232 180 mg), geometric mean (CV%), read-out: AUC24hr) was 402 ng·h/mL, the Tmax ([2]; trametinib 2 mg QD, Cycle 2 Day 7 with AMG 232, Arm 1 cohort 2 (AMG 232 180 mg), median (min-max), read-out: tmax) was 2 h and the Cmax [2, 3] was 24.8 ng/mL. The Tmax ([2]; trametinib 2 mg QD, Cycle 2 Day 7 with AMG 232, Arm 2 cohort 1 (AMG 232 120 mg), median (min-max), read-out: tmax) was 2 h, the Cmax ([2]; trametinib 2 mg QD, Cycle 2 Day 7 with AMG 232, Arm 2 cohort 2 (AMG 232 180 mg), n = 1) was 21.8 ng/mL and the AUC(0-t) ([2]; trametinib 2 mg QD, Cycle 2 Day 7 with AMG 232, Arm 2 cohort 2 (AMG 232 180 mg), n = 1, read-out: AUC24hr) was 463 ng·h/mL. The Tmax ([2]; trametinib 2 mg QD, Cycle 2 Day 7 with AMG 232, Arm 2 cohort 2 (AMG 232 180 mg), n = 1, read-out: tmax) was 2 h, the Cmax [2, 4] was 24.3 ng/mL and the Tmax ([2]; trametinib 2 mg QD, Cycle 2 Day 7 with AMG 232, Arm 2 cohort 3 (AMG 232 240 mg), median (min-max), read-out: tmax) was 2 h. The Tmax ([2]; trametinib, cycle 2, day 7, with AMG 232 co-administration, across dose cohorts, read-out: median tmax) was 1 to 3 h, the AUC24hr ([2]; trametinib 2 mg QD, Cycle 1 Day 21 without AMG 232, Arm 2 cohort 2 (AMG 232 180 mg), geometric mean (CV%)) was 471 (26.7%) n = 5 hr•ng/mL and the AUC24hr ([2]; trametinib 2 mg QD, Cycle 1 Day 21 without AMG 232, Arm 2 cohort 3 (AMG 232 240 mg), geometric mean (CV%)) was 385 (22.9%) n = 6 hr•ng/mL. The AUC24hr [2, 3] was 468 (23.5%)^a n = 3 hr•ng/mL, the AUC24hr [2, 4] was 351 (41.9%)^a n = 4 hr•ng/mL and the median tmax ([2]; trametinib, cycle 1, day 21, without AMG 232 co-administration, across dose cohorts) was 2 h.
